Square brackets hold non-standard residues; d marks the D form. Peptide text beside a SMILES is read from it. Ac6c = NC1(C(=O)O)CCCCC1
Tests used:
S. aureus DnaK [1] = biological target: T1, S. aureus DnaK (Staphylococcus aureus, UniProt P99110); assay: Competitive fluorescence polarization Ki; assay type: binding; details: unlabeled peptide competing with Cf-labeled peptide; DnaK 16 µmol/L; 90 + 90 min, 28°C
T1 construct: His6-tag with TEV site ([…]) (N, cleaved yes); made in house; host or cells: E. coli (DE3) Rosetta pLysS
T1 sequence (P99110 whole entry): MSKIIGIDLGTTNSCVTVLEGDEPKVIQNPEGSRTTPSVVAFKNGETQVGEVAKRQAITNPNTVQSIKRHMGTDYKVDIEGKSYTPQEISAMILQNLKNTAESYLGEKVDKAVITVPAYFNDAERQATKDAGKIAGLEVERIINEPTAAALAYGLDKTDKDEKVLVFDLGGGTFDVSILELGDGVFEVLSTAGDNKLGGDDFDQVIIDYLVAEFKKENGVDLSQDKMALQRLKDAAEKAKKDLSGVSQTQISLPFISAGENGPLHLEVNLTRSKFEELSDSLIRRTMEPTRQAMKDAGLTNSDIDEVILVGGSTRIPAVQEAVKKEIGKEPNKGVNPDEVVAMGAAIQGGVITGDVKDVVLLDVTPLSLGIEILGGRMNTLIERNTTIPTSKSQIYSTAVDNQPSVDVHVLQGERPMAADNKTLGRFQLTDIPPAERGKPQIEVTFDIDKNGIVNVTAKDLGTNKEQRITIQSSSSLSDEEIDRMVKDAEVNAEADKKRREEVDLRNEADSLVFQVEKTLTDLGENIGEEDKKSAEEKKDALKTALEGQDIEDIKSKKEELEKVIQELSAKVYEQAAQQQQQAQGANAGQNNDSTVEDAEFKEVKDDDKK
Method: (§1) The quality of the experimental set up was evaluated by the Z′ factor ([Zhang et al., 1999]) (Supplementary Table S2). […] The obtained FP-values were normalized to the FP-values determined for lead sequence ARV-1502.

E. coli DnaK [2] = biological target: T2, E. coli DnaK (Escherichia coli, UniProt P0A6Y8); assay: Competitive fluorescence polarization Ki; assay type: binding; details: unlabeled peptide competing with Cf-labeled peptide; DnaK 5 µmol/L; 90 + 90 min, 28°C
T2 construct: His6-tag with TEV site ([…]) (N, cleaved yes); made in house; host or cells: E. coli (DE3) Rosetta pLysS
T2 sequence (P0A6Y8 whole entry): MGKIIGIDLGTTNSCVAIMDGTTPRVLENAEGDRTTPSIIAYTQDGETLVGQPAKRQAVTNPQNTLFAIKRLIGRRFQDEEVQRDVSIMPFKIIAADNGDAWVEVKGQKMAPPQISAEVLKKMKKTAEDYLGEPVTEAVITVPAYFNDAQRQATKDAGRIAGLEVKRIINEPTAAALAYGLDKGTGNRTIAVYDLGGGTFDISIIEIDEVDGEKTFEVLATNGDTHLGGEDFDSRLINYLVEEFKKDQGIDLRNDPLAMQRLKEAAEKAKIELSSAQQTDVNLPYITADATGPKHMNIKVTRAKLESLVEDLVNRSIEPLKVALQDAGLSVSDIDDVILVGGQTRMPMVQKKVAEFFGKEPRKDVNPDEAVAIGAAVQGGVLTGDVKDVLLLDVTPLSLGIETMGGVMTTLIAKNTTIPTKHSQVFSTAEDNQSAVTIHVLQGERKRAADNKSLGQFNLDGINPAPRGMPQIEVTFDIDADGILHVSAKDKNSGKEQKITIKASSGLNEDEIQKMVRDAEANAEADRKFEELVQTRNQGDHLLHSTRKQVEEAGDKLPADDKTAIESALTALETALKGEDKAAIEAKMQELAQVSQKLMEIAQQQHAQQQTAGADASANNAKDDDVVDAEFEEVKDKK
Method: as §1

S. aureus DnaK [3] = biological target: T1, S. aureus DnaK; assay: FP peptide binding screening against Cf-ARV-1502; details: screening: DnaK 16 µmol/L, unlabeled peptide 35 µmol/L, duplicate, below 1 = better than ARV-1502
E. coli DnaK [4] = biological target: T2, E. coli DnaK; assay type: binding
Method: The plate was incubated (90 min, 28°C, dark) and Cf-ARV-1502 (80 nmol/L; 10 µL/well) added. […] Each peptide was screened in duplicate. Control samples either lacked the unlabeled peptide (maximum) or contained Cf-ARV-1502 in buffer (minimum).
as §1

[5] = tested on: S. aureus DnaK/DnaJ/GrpE-chaperone system; assay: ATPase activity assay (malachite green), chaperone system; assay type: biochemical, Staphylococcus aureus; details: peptide screen, 0.3 mmol/L peptide; for ATPase activity of the S. aureus DnaK/DnaJ/GrpE system, normalized to activity without peptide (100%): 37°C, 2 h, triplicates
Method: (§2) ATPase activity of E. coli and S. aureus chaperones was studied in the presence of an AMP using a 384-well plate colorimetric assay ([Chang et al., 2008]; [Zahn et al., 2013]). […] The chaperone mix (13.5 µL) was incubated with an aqueous peptide solution (1.5 µL; final concentration 0.3 mmol/L) at 37°C for 30 min in a non-binding 384-well plate (flat bottom, Greiner Bio-One GmbH). Each sample was prepared in triplicates on the same plate. The reaction was started by addition of ATP dissolved in assay buffer (5 µL, 4 mmol/L) and the plate centrifuged (500 × g, 2 min; Allegra™ 21R, Beckmann Coulter, Krefeld, Germany) before incubated (37°C, 2 h). The released phosphate was quantified using an external phosphate dilution series (10–200 µmol/L KH2PO4 in assay buffer) prepared on each plate and treated equally as the samples. The reaction was stopped by adding assay buffer (80 µL) to all samples except the phosphate dilution series. Aliquots of all samples (10 µL) were transferred to a clear 384-well plate (flat bottom, Greiner Bio-One GmbH) and malachite green reagent added (90 µL; mixture of malachite green in water (0.04%, w/v), ammonium molybdate (2%, w/w) in aqueous sulfuric acid (3.5 mol/L), and water at a ratio of 1:1:3.6, v/v/v). After 15 min, the absorbance was recorded at 620 nm on the […]™ microplate reader. The phosphate standard curve was fitted by a hyperbolic equation y = (ax)/(b + x) + c.

[6] = tested on: E. coli DnaK/DnaJ/GrpE-chaperone system; assay: as above; assay type: biochemical, Escherichia coli; details: peptide screen, 0.3 mmol/L peptide; for ATPase activity of the E. coli DnaK/DnaJ/GrpE system, normalized to activity without peptide (100%): 37°C, 2 h, triplicates
Method: as §2

| Compound | binding to S. aureus DnaK, FP-value normalized to ARV-1502 (S. aureus DnaK [3]) | binding to E. coli DnaK, FP-value normalized to ARV-1502 (E. coli DnaK [4]) | further results |
| --- | --- | --- | --- |
| CC(C)C[C@H](NC(=O)[C@H](Cc1ccc(O)cc1)NC(=O)[C@@H]1CCCN1C(=O)[C@H](CCCNC(=N)N)NC(=O)[C@@H]1CCCN1C(=O)[C@H](CCCCN)NC(=O)[C@H](CCCCN)NC(=O)[C@@H]1CCCN1C(=O)[C@H](CCCNC(=N)N)NC(=O)C1(N)CCCCC1)C(=O)N1CCC[C@H]1C(=O)N[C@@H](Cc1ccccc1)C(=O)N1CCC[C@H]1C(=O)N[C@@H](CCCNC(=N)N)C(=O)N1CCC[C@H]1C(=O)N1CCC[C@H]1C(=O)N[C@@H](CCCNC(=N)N)C(=O)N1CCC[C@H]1C(=O)N[C@H](C(=O)N[C@@H](CCCNC(=N)N)C(N)=O)C(C)C [compound 46] (H-[Ac6c]RPKKPRPYLPFPRPPRPVR-NH2) | – | – | Ki (S. aureus DnaK [1]): 15.6 µM; Ki (E. coli DnaK [2]): 660 nM |
| CC(C)C[C@H](NC(=O)[C@H](Cc1ccc(O)cc1)NC(=O)[C@@H]1CCCN1C(=O)[C@H](CCCNC(=N)N)NC(=O)[C@@H]1CCCN1C(=O)[C@H](Cc1ccccc1)NC(=O)[C@H](Cc1ccccc1)NC(=O)[C@@H]1CCCN1C(=O)[C@H](CCCNC(=N)N)NC(=O)C1(N)CCCCC1)C(=O)N[C@@H](CO)C(=O)N[C@@H](CCCNC(=N)N)C(=O)N1CCC[C@H]1C(=O)N[C@@H](CCCNC(=N)N)C(=O)N1CCC[C@H]1C(=O)N1CCC[C@H]1C(=O)N[C@@H](CCCNC(=N)N)C(=O)N1CCC[C@H]1C(=O)N[C@H](C(=O)N[C@@H](CCCNC(=N)N)C(N)=O)C(C)C [compound 99] (H-[Ac6c]RPFFPRPYLSRPRPPRPVR-NH2) | best binders | best binders | DnaK binding in the screening, in words (E. coli DnaK [4]; FP screening, DnaK variant not stated at the place): best binding |
| CC(C)C[C@H](NC(=O)[C@H](CO)NC(=O)[C@@H]1CCCN1C(=O)[C@H](CCCNC(=N)N)NC(=O)[C@@H]1CCCN1C(=O)[C@H](CCCCN)NC(=O)[C@H](CC(=O)O)NC(=O)[C@@H]1CCCN1C(=O)[C@H](CCCNC(=N)N)NC(=O)C1(N)CCCCC1)C(=O)N1CCC[C@H]1C(=O)N[C@@H](Cc1ccccc1)C(=O)N1CCC[C@H]1C(=O)N[C@@H](CCCNC(=N)N)C(=O)N1CCC[C@H]1C(=O)N1CCC[C@H]1C(=O)N[C@@H](CCCNC(=N)N)C(=O)N1CCC[C@H]1C(=O)N[C@H](C(=O)N[C@@H](CCCNC(=N)N)C(N)=O)C(C)C [compound 130] (H-[Ac6c]RPDKPRPSLPFPRPPRPVR-NH2) | – | – | Ki (S. aureus DnaK [1]): 8.46 µM |
| CC(C)C[C@H](NC(=O)[C@H](Cc1ccc(O)cc1)NC(=O)[C@@H]1CCCN1C(=O)[C@H](CCCNC(=N)N)NC(=O)[C@@H]1CCCN1C(=O)[C@H](CCCCN)NC(=O)[C@H](CCCCN)NC(=O)[C@@H]1CCCN1C(=O)[C@H](CCCNC(=N)N)NC(=O)C1(N)CCCCC1)C(=O)N1CCC[C@H]1C(=O)N[C@@H](CCCNC(=N)N)C(=O)N1CCC[C@H]1C(=O)N[C@@H](CCCNC(=N)N)C(=O)N1CCC[C@H]1C(=O)N1CCC[C@H]1C(=O)N[C@@H](CCCNC(=N)N)C(=O)N1CCC[C@H]1C(=O)N[C@H](C(=O)N[C@@H](CCCNC(=N)N)C(N)=O)C(C)C [peptide 2] (H-[Ac6c]RPKKPRPYLPRPRPPRPVR-NH2) | – | – | Ki (E. coli DnaK [2]): 600 nM |
| CC(C)C[C@H](NC(=O)[C@H](Cc1ccc(O)cc1)NC(=O)[C@@H]1CCCN1C(=O)[C@H](CCCNC(=N)N)NC(=O)[C@@H]1CCCN1C(=O)[C@H](Cc1ccccc1)NC(=O)[C@H](Cc1ccccc1)NC(=O)[C@@H]1CCCN1C(=O)[C@H](CCCNC(=N)N)NC(=O)C1(N)CCCCC1)C(=O)N1CCC[C@H]1C(=O)N[C@@H](CCCNC(=N)N)C(=O)N[C@@H](CCCCN)C(=O)N[C@@H](CCCNC(=N)N)C(=O)N1CCC[C@H]1C(=O)N1CCC[C@H]1C(=O)N[C@@H](CCCNC(=N)N)C(=O)N1CCC[C@H]1C(=O)N[C@H](C(=O)N[C@@H](CCCNC(=N)N)C(N)=O)C(C)C [peptide 105] (H-[Ac6c]RPFFPRPYLPRKRPPRPVR-NH2) | best binders | best binders | – |
| Chex-RPDDPRPDLPRPRPPRPVR-NH2 [compound 53, substituted analog of ARV-1502] | – | – | increase of ATPase activity, S. aureus chaperone system [5]: ≥ 60% |
| Chex-RPDDPRPKLPRPRPPRPVR-NH2 [compound 54, substituted analog of ARV-1502] | best binders | – | – |
| Chex-RPDDPRPYLPLPRPPRPVR-NH2 [compound 66, substituted analog of ARV-1502] | – | – | decrease of ATPase activity, E. coli chaperone system [6]: at least 40%; ATPase activity of the E. coli DnaK/DnaJ/GrpE system, normalized to activity without peptide (100%) [6]: below 60% |
| Chex-RPDDPRPYLPRDRPPRPVR-NH2 [compound 68, substituted analog of ARV-1502] | – | – | decrease of ATPase activity, E. coli chaperone system [6]: 50% |
| Chex-RPDKPRPDDPRPRPPRPVR-NH2 [compound 107, substituted analog of ARV-1502] | – | – | increase of ATPase activity, S. aureus chaperone system [5]: ≥ 60% |
| Chex-RPDKPRPDKPRPRPPRPVR-NH2 [compound 108, substituted analog of ARV-1502] | bound neither | bound neither | – |
| Chex-RPDKPRPDLPRDRPPRPVR-NH2 [compound 117, substituted analog of ARV-1502] | – | – | ATPase activity of the E. coli DnaK/DnaJ/GrpE system, normalized to activity without peptide (100%) [6]: below 60%; increase of ATPase activity, S. aureus chaperone system [5]: ≥ 60% |
| Chex-RPDKPRPDLPRSRPPRPVR-NH2 [compound 119, substituted analog of ARV-1502] | – | – | ATPase activity of the S. aureus DnaK/DnaJ/GrpE system, normalized to activity without peptide (100%) [5]: more than 160% |
| Chex-RPDKPRPKSPRPRPPRPVR-NH2 [compound 122, substituted analog of ARV-1502] | bound neither | bound neither | – |
| Chex-RPDKPRPSLDRPRPPRPVR-NH2 [compound 128, substituted analog of ARV-1502] | – | – | ATPase activity of the E. coli DnaK/DnaJ/GrpE system, normalized to activity without peptide (100%) [6]: below 60% |
| Chex-RPDKPRPSLPRSRPPRPVR-NH2 [compound 133, substituted analog of ARV-1502] | best binders | – | – |
| Chex-RPDKPRPYKPDPRPPRPVR-NH2 [compound 160, substituted analog of ARV-1502] | best binders | – | – |
| Chex-RPDKPRPYSPDPRPPRPVR-NH2 [compound 170, substituted analog of ARV-1502] | best binders | – | – |
| Chex-RPDKPRPYSPLPRPPRPVR-NH2 [compound 172, substituted analog of ARV-1502] | best binders | – | – |
| Chex-RPFFPRPKLPRPRPPRPVR-NH2 [compound 90, substituted analog of ARV-1502] | best binders | best binders | – |
| Chex-RPFFPRPSLPRPRPPRPVR-NH2 [compound 91, substituted analog of ARV-1502] | best binders | best binders | – |
| Chex-RPFFPRPYLPRSRPPRPVR-NH2 [compound 106, substituted analog of ARV-1502] | best binders | best binders | – |
| Chex-RPFFPRPYLPSPRPPRPVR-NH2 [compound 101, substituted analog of ARV-1502] | best binders | best binders | – |
| Chex-RPSSPRPYLPSPRPPRPVR-NH2 [compound 83, substituted analog of ARV-1502] | – | – | ATPase activity of the S. aureus DnaK/DnaJ/GrpE system, normalized to activity without peptide (100%) [5]: more than 160% |
